Laboratory results: ChEMBL document CHEMBL5257119, “New insight into the bioactivity of substituted benzimidazole derivatives: Repurposing from anti-HIV activity to cell migration inhibition targeting hnRNP M” (Bioorg Med Chem, 2023)
The source made the active and inactive calls. No cut-off for these calls is given here.

Assays:
[1] = tested on: A549; assay: Cytotoxicity against human A549 cells assessed as reduction in cell growth at 20 uM measured for 2 days by MTT assay; type: functional, cell-based; conditions: time 2.0 day
[2] = tested on: A549; assay: Antimigratory activity against TGFbeta-stimulated human A549 cells assessed as inhibition of cell migration at 10 uM measured for 1 day by cell scratch assay; type: functional, cell-based
[3] = molecular target: T1, Heterogeneous nuclear ribonucleoprotein M (Homo sapiens) (UniProt P52272); assay: Competitive inhibition of hnRNP M to in human A549 cells at 50 uM by immunoblotting analysis; type: cell-based
T1 sequence (whole entry): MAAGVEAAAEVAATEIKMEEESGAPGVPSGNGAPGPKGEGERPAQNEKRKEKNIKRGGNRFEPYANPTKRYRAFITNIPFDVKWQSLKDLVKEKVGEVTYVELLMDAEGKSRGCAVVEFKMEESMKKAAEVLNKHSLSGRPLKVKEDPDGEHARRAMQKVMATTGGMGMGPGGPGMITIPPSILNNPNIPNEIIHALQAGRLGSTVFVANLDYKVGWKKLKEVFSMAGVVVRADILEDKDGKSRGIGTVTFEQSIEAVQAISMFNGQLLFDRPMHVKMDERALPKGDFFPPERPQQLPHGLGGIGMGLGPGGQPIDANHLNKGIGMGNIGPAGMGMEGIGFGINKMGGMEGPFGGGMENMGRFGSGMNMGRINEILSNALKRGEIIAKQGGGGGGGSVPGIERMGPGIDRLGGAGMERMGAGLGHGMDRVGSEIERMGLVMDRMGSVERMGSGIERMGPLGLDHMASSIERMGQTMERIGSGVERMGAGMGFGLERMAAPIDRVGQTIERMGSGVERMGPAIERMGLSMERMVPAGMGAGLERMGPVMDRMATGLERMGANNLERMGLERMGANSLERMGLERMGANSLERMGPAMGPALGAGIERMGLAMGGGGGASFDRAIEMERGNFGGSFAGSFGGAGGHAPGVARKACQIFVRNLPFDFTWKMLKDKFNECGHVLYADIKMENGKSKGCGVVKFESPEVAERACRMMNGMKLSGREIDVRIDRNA

[4] = tested on: A549; assay: Antimigratory activity against TGFbeta-stimulated human A549 cells assessed as inhibition of cell migration measured for 1 day by cell scratch assay; type: functional, cell-based
[5] = tested on: A549; assay: Downregulation of CD44 mRNA expression in human A549 cells at 20 uM measured for 1 day bt RT-qPCR analysis; type: functional, cell-based
[6] = tested on: A549; assay: Downregulation of E-cadherin mRNA expression in human A549 cells at 20 uM measured for 1 day bt RT-qPCR analysis; type: functional, cell-based
[7] = tested on: A549; assay: Antimigratory activity against TGFbeta-stimulated human A549 cells assessed as inhibition of cell migration at 1 uM measured for 1 day by cell scratch assay; type: functional, cell-based
[8] = tested on: A549; assay: Downregulation of Vimentin mRNA expression in human A549 cells at 20 uM measured for 1 day bt RT-qPCR analysis; type: functional, cell-based
[9] = tested on: A549; assay: Antimigratory activity against TGFbeta-stimulated human A549 cells assessed as inhibition of cell migration at 20 uM measured for 1 day by cell scratch assay; type: functional, cell-based
[10] = tested on: A549; assay: Downregulation of Zeb 1 mRNA expression in human A549 cells at 20 uM measured for 1 day bt RT-qPCR analysis; type: functional, cell-based

Compound	Activity [1]	Activity [2]	Activity [9]	also measured
Cc1noc(C)c1CSc1nc2ccccc2s1	inactive			
Cc1ccnc(SCc2nc3ccccc3s2)n1	inactive	Active		inhibition [3]: Active
Cc1noc(C)c1CSc1nc2ccccc2n1-c1ccccc1	inactive			Activity [4]: inactive
Cc1noc(C)c1CSc1nc2ccccc2n1C	inactive			
c1ccc(CSc2nc3ccccc3n2-c2ccccc2)cc1	inactive			
c1ccc2[nH]c(SCc3nc4ccccc4s3)nc2c1	inactive	Active	Active	inhibition call (active/inactive) [3]: Active; Activity [5]: Active; Activity [6]: Active; Activity [7]: Active; Activity [8]: Active
c1ccc(-n2c(SCc3ccccn3)nc3ccccc32)cc1	inactive			
N#Cc1ccc(CSc2nc3ccccc3n2-c2ccccc2)cc1	inactive		Active	
Cc1noc(C)c1CSc1nc2ccccc2[nH]1	inactive	Active	Active	inhibition call (active/inactive) [3]: Active; Activity [5]: Active; Activity [6]: Active; Activity [8]: Active
c1ccc(-n2c(SCc3nc4ccccc4s3)nc3ccccc32)cc1	inactive			
Cn1c(SCc2nc3ccccc3s2)nc2ccccc21	inactive			
COc1ccc(CSc2nc3ccccc3n2-c2ccccc2)cc1	inactive			
Cc1noc(C)c1CSc1nc2cc(Cl)c(Cl)cc2[nH]1	inactive	Active	Active	Activity [10]: Active; inhibition call (active/inactive) [3]: Active; Activity [5]: Active; Activity [6]: Active; Activity [8]: Active
